Measured values as given in ChEMBL document CHEMBL4425158, “Synthesis, structure-activity relationships and biological evaluation of 4,5,6,7-tetrahydropyrazolopyrazines as metabotropic glutamate receptor 5 negative allosteric modulators” (Bioorg Med Chem Lett, 2016).
pIC50: −log10 of the molar value. Blank lines part the entries; values can stand above or below the compound they belong to. Active and inactive are the calls of the source. The rule behind the calls is not given here.

Tests used:
Mus musculus = experiment: Antidepressant activity in CD1(ICR) mouse assessed as decrease in immobility time at 60 mg/kg, po after 1 hr by tail suspension test; type: functional, organism-based
[1] = Aqueous solubility of the compound at pH 1.2; type: physicochemical
Cytochrome P450 2C9 = Cytochrome P450 2C9 (Homo sapiens, UniProt P11712); experiment: Inhibition of CYP2C9 in human liver microsomes using diclofenac as substrate after 10 mins in presence of NADPH by LC/MS/MS analysis; type: ADME
Cytochrome P450 3A4 = Cytochrome P450 3A4 (Homo sapiens, UniProt P08684); experiment: Inhibition of CYP3A4 in human liver microsomes using midazolam as substrate after 10 mins in presence of NADPH by LC/MS/MS analysis; type: ADME
Cytochrome P450 1A2 = target: T1, Cytochrome P450 1A2 (Homo sapiens, UniProt P05177); experiment: Inhibition of CYP1A2 in human liver microsomes using phenacetin as substrate after 10 mins in presence of NADPH by LC/MS/MS analysis; type: ADME
T1 sequence (P05177 whole entry): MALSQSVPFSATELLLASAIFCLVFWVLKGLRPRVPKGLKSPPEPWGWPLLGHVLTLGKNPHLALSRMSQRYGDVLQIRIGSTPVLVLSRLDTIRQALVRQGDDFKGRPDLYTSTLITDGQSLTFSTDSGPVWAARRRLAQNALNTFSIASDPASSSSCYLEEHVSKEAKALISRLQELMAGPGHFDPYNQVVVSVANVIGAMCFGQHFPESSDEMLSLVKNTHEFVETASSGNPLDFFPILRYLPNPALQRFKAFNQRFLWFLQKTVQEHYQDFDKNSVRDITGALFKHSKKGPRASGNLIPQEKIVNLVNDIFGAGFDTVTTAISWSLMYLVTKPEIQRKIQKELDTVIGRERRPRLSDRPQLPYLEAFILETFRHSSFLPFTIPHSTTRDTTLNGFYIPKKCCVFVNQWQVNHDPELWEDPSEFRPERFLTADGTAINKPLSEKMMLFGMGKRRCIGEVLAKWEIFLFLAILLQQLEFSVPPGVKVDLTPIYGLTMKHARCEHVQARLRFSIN

Cytochrome P450 2C19 = Cytochrome P450 2C19 (Homo sapiens, UniProt P33261); experiment: Inhibition of CYP2C19 in human liver microsomes using (S)-mephenytoin as substrate after 10 mins in presence of NADPH by LC/MS/MS analysis; type: ADME
[2] = Metabolic stability in human liver microsomes assessed as compound remaining at 1 uM after 30 mins in presence of NADPH by LC/MS/MS analysis; type: ADME, Microsome; details: read-out: Stability
Cytochrome P450 2D6 = Cytochrome P450 2D6 (Homo sapiens, UniProt P10635); experiment: Inhibition of CYP2D6 in human liver microsomes using bufuralol as substrate after 10 mins in presence of NADPH by LC/MS/MS analysis; type: ADME
[3] = Aqueous solubility of the compound at pH 7.4; type: physicochemical
Cytochrome P450 2C8 = target: T2, Cytochrome P450 2C8 (Homo sapiens, UniProt P10632); experiment: Inhibition of CYP2C8 in human liver microsomes using amodiaquin as substrate after 10 mins in presence of NADPH by LC/MS/MS analysis; type: ADME
T2 sequence (P10632 whole entry): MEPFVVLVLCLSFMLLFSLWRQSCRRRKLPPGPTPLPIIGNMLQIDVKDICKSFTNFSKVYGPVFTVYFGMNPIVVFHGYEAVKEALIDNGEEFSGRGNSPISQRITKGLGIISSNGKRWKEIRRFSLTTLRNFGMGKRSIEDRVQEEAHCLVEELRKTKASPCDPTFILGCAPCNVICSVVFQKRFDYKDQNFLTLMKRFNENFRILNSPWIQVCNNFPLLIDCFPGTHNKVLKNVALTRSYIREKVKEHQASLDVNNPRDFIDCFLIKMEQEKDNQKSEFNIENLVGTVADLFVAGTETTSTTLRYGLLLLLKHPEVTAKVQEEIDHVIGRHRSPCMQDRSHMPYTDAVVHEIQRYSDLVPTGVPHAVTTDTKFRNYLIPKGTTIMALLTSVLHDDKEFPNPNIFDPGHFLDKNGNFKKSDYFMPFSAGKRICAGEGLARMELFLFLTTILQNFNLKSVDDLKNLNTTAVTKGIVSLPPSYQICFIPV

[4] = target: Metabotropic glutamate receptor 5 (Homo sapiens, UniProt P41594); experiment: Negative allosteric modulation of human recombinant mGluR5 expressed in HEK293 cells assessed as L-glutamate-induced intracellular calcium mobilization incubated for 20 mins before L-glutamate addition; type: functional, cell-based
[5] = Metabolic stability in rat liver microsomes assessed as compound remaining at 1 uM after 30 mins in presence of NADPH by LC/MS/MS analysis; type: ADME, Microsome; details: read-out: Stability
Cytochrome P450 2A6 = target: T3, Cytochrome P450 2A6 (Homo sapiens, UniProt P11509); experiment: Inhibition of CYP2A6 in human liver microsomes using coumarin as substrate after 10 mins in presence of NADPH by LC/MS/MS analysis; type: ADME
T3 sequence (P11509 whole entry): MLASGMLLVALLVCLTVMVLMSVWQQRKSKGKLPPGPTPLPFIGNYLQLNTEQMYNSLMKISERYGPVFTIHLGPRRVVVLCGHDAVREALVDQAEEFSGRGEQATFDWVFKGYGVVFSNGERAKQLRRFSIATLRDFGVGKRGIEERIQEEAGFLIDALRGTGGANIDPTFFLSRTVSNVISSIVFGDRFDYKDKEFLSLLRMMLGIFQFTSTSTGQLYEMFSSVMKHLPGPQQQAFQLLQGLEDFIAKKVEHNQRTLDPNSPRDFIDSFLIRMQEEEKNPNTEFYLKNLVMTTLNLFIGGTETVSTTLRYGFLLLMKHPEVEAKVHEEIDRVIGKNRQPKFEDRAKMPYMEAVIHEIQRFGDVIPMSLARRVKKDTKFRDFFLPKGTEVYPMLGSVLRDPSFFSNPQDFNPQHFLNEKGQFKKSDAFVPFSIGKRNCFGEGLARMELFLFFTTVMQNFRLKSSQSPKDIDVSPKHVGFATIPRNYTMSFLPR

Metabotropic glutamate receptor 5, sequence (P41594 whole entry): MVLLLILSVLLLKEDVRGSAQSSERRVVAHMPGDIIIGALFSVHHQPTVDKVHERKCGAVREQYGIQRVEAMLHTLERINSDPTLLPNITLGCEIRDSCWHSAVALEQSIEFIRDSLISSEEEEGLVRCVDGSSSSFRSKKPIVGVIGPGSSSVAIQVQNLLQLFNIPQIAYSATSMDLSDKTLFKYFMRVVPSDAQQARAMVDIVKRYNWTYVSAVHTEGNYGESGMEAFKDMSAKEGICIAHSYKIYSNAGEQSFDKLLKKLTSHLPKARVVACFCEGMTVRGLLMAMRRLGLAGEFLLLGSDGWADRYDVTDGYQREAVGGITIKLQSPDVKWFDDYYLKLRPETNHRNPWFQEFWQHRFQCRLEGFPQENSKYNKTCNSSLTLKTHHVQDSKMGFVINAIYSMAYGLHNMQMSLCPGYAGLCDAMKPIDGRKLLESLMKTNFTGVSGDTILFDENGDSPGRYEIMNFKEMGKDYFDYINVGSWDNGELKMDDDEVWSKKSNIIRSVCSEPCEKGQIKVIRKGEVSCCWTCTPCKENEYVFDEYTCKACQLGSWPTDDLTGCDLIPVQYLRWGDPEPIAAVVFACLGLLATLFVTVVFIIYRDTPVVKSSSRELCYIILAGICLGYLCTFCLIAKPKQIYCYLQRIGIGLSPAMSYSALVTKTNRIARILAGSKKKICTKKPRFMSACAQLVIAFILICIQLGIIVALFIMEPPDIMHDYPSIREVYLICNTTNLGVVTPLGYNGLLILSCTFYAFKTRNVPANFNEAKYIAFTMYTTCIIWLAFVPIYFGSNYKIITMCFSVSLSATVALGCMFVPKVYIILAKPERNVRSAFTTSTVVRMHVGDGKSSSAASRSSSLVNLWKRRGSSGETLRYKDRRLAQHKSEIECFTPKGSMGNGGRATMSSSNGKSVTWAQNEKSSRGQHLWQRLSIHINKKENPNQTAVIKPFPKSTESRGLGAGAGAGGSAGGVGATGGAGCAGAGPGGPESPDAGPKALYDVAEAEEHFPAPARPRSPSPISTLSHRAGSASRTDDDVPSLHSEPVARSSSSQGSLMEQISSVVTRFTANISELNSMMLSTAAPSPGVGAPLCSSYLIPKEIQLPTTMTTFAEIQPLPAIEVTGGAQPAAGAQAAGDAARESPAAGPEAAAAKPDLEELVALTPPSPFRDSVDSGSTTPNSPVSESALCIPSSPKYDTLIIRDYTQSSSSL
Cytochrome P450 2C9, sequence (P11712 whole entry): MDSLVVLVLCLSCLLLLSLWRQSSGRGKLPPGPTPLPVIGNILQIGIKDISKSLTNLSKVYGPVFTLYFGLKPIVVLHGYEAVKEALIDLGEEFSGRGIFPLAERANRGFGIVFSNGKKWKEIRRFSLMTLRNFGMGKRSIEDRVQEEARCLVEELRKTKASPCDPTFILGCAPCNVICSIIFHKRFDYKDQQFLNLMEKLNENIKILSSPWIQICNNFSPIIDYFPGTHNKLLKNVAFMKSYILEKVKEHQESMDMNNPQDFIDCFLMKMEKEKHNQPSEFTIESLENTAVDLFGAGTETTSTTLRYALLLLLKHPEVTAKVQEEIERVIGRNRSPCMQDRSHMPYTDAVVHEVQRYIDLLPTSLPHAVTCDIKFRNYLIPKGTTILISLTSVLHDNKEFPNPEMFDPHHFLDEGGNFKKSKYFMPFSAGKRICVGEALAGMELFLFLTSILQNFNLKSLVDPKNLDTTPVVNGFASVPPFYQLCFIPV
Cytochrome P450 2C19, sequence (P33261 whole entry): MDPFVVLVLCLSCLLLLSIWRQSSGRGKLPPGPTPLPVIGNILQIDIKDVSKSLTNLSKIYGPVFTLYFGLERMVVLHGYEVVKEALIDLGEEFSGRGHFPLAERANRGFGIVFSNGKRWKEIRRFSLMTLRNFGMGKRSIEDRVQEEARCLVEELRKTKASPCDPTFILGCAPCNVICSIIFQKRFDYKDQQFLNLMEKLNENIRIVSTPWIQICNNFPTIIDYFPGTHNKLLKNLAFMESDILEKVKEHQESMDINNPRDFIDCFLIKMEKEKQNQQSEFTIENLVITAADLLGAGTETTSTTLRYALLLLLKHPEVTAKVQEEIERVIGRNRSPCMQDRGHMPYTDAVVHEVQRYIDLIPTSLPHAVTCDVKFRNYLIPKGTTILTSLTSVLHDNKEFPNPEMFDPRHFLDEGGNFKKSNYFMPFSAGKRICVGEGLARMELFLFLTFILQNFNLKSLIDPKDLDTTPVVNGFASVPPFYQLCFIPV
Cytochrome P450 3A4, sequence (P08684 whole entry): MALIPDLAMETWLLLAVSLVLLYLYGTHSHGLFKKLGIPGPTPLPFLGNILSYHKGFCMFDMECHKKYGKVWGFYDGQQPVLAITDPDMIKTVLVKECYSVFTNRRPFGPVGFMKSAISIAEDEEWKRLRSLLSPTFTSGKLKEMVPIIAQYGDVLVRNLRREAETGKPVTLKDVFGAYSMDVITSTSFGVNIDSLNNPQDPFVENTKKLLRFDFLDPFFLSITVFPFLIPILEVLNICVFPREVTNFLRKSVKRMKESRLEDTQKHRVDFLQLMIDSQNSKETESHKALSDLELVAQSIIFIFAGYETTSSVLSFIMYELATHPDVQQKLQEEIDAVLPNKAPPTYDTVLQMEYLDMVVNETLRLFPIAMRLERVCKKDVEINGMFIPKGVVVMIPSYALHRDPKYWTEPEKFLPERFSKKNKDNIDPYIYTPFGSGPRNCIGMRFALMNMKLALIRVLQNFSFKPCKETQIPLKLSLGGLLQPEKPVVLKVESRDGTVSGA
Cytochrome P450 2D6, sequence (P10635 whole entry): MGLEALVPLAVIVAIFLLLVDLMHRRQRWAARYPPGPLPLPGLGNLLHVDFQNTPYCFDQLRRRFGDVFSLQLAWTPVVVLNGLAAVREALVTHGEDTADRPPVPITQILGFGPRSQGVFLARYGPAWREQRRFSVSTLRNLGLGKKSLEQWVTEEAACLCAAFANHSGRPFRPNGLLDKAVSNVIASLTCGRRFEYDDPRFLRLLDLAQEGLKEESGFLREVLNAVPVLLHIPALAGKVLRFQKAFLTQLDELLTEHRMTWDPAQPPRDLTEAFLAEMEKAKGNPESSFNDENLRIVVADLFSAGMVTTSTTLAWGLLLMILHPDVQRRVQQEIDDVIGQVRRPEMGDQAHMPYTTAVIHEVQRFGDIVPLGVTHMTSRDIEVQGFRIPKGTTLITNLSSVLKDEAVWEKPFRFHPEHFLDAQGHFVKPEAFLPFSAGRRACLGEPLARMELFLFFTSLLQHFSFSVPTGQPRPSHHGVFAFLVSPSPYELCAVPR

SMILES: CN(C)CCCN1c2ccccc2CCc2ccccc21
- Activity (Mus musculus): Active

- solubility [1]: > 100 µg/mL
- pIC50 (Cytochrome P450 2C9): < 4.30
- pIC50 (Cytochrome P450 3A4): < 4.30
- pIC50 (Cytochrome P450 1A2): < 4.30
- pIC50 (Cytochrome P450 2C19): < 4.30
- remaining at 0.5 h, 1 µM [2]: 92%
- pIC50 (Cytochrome P450 2D6): < 4.30
- solubility [3]: > 100 µg/mL
- pIC50 (Cytochrome P450 2C8): < 4.30
- pIC50 [4]: 6.63
- remaining at 0.5 h, 1 µM [5]: 95%
- pIC50 (Cytochrome P450 2A6): < 4.30
SMILES: O=C(c1ccccc1)N1CCn2nc(-c3ccccn3)cc2C1

- pIC50 [4]: 6.61
SMILES: Cc1ccc(-c2cc3n(n2)CCN(C(=O)c2ccccc2)C3)nc1

- pIC50 [4]: < 5.00
SMILES: Cc1cccnc1-c1cc2n(n1)CCN(C(=O)c1ccccc1)C2

- pIC50 [4]: 5.61
SMILES: O=C(c1ccccc1Cl)N1CCn2nc(-c3ccccn3)cc2C1

- pIC50 [4]: 6.57
SMILES: O=C(c1cc(Cl)cc(Cl)c1)N1CCn2nc(-c3ccccn3)cc2C1
